Results reported in patent US20220119354A1, “DIAMINO-SUBSTITUTED PYRIDINES AND PYRIMIDINES AS HERBICIDES” (FMC Corporation, priority 2019, published 2022).

What was measured:
Assay type in all cases: in vivo
[1] = system: blackgrass (Alopecurus myosuroides); assay: Test A postemergence, blackgrass; conditions: 0 to 100 scale
From the text: (§1) Seeds of plant species selected from barnyardgrass (Echinochloa crus-galli), kochia (Kochia scoparia), ragweed (common ragweed, Ambrosia elatior), ryegrass, Italian (Lolium multiflorum), foxtail, giant (Setaria faberii), foxtail, green (Setaria viridis), and pigweed (Amaranthus retroflexus) were planted into a blend of loam soil and sand and treated preemergence with a directed soil spray using test chemicals formulated in a non-phytotoxic solvent mixture which included a surfactant.
(§2) At the same time, plants selected from these weed species and also wheat (Triticum aestivum), corn (Zea mays), blackgrass (Alopecurus myosuroides), and galium (catchweed bedstraw, Galium aparine) were planted in pots containing the same blend of loam soil and sand and treated with postemergence applications of test chemicals formulated in the same manner. Plants ranged in height from 2 to 10 cm and were in the one- to two-leaf stage for the postemergence treatment. Treated plants and untreated controls were maintained in a greenhouse for approximately 10 d, after which time all treated plants were compared to untreated controls and visually evaluated for injury. Plant response ratings, summarized in Table A, are based on a 0 to 100 scale where 0 is no effect and 100 is complete control. A dash (-) response means no test result.

kochia (Kochia scoparia) [2] = assay: Test A postemergence, kochia; conditions: 0 to 100 scale
From the text: as §1, §2

[3] = system: foxtail, giant (Setaria faberii); assay: Test A preemergence, giant foxtail; conditions: 0 to 100 scale; for Foxtail, Giant plant response rating: 0 is no effect, 100 is complete control
From the text: as §1, §2

[4] = system: ducksalad (Heteranthera limosa); assay: Test B flooded paddy test, ducksalad; conditions: Flood, 250 g ai/ha, applied to paddy water, 2-leaf stage, visual evaluation after 13 to 15 d
Protocol: (§3) Plant species in the flooded paddy test selected from rice (Oryza sativa), sedge, umbrella (small-flower umbrella sedge, Cyperus difformis), ducksalad (Heteranthera limosa), and barnyardgrass (Echinochloa crus-galli) were grown to the 2-leaf stage for testing. At the time of treatment, test pots were flooded to 3 cm above the soil surface, treated by application of test compounds directly to the paddy water, and then maintained at that water depth for the duration of the test. Treated plants and controls were maintained in a greenhouse for 13 to 15 d, after which time all species were compared to controls and visually evaluated. Plant response ratings, summarized in Table B, are based on a scale of 0 to 100 where 0 is no effect and 100 is complete control. A dash (-) response means no test result.

[5] = system: ragweed (common ragweed, Ambrosia elatior); assay: Test A postemergence, ragweed; conditions: 0 to 100 scale
From the text: as §1, §2

[6] = system: galium (catchweed bedstraw, Galium aparine); assay: Test A postemergence, galium; conditions: 0 to 100 scale
From the text: as §1, §2

[7] = system: wheat (Triticum aestivum); assay: Test A postemergence, wheat; conditions: 0 to 100 scale
From the text: as §1, §2

kochia (Kochia scoparia) [8] = assay: Test A preemergence, kochia; conditions: 0 to 100 scale; for Kochia plant response rating: 0 is no effect, 100 is complete control
From the text: as §1, §2

[9] = system: pigweed (Amaranthus retroflexus); assay: Test A postemergence, pigweed; conditions: 0 to 100 scale
From the text: as §1, §2

corn (Zea mays) = assay: Test A postemergence, corn; conditions: 0 to 100 scale
From the text: as §1, §2

[10] = system: barnyardgrass (Echinochloa crus-galli); assay: Test A preemergence, barnyardgrass; conditions: 0 to 100 scale; for Barnyardgrass plant response rating: 0 is no effect, 100 is complete control
From the text: as §1, §2

rice (Oryza sativa) = assay: Test B flooded paddy test, rice; conditions: Flood, 250 g ai/ha, applied to paddy water, 2-leaf stage, visual evaluation after 13 to 15 d
Protocol: as §3

[11] = system: pigweed (Amaranthus retroflexus); assay: Test A preemergence, pigweed; conditions: 0 to 100 scale; for Pigweed plant response rating: 0 is no effect, 100 is complete control
From the text: as §1, §2

[12] = system: ryegrass, Italian (Lolium multiflorum); assay: Test A postemergence, Italian ryegrass; conditions: 0 to 100 scale
From the text: as §1, §2

[13] = system: barnyardgrass (Echinochloa crus-galli); assay: Test B flooded paddy test, barnyardgrass; conditions: Flood, 250 g ai/ha, applied to paddy water, 2-leaf stage, visual evaluation after 13 to 15 d
Protocol: as §3

[14] = system: sedge, umbrella (small-flower umbrella sedge, Cyperus difformis); assay: Test B flooded paddy test, umbrella sedge; conditions: Flood, 250 g ai/ha, applied to paddy water, 2-leaf stage, visual evaluation after 13 to 15 d
Protocol: as §3

[15] = system: barnyardgrass (Echinochloa crus-galli); assay: Test A postemergence, barnyardgrass; conditions: 0 to 100 scale
From the text: as §1, §2

[16] = system: foxtail, giant (Setaria faberii); assay: Test A postemergence, giant foxtail; conditions: 0 to 100 scale
From the text: as §1, §2

[17] = system: ryegrass, Italian (Lolium multiflorum); assay: Test A preemergence, Italian ryegrass; conditions: 0 to 100 scale, 0 is no effect, 100 is complete control
From the text: as §1, §2

[18] = system: ragweed (common ragweed, Ambrosia elatior); assay: Test A preemergence, ragweed; conditions: 0 to 100 scale, 0 is no effect, 100 is complete control
From the text: as §1, §2

[19] = 1000 g ai/ha, 0 is no effect, 100 is complete control
[20] = 125 g ai/ha, 0 no effect, 100 complete control
[21] = 500 g ai/ha, 0 no effect, 100 complete control

## Cc1cc(OCC(C)Nc2ncc(C(F)(F)F)c(N)n2)ccc1F (stereo not shown) [Compound 38]
[1]; 125 g ai/ha
  Plant response rating, Blackgrass: 0
[1]; 500 g ai/ha
  Plant response rating, Blackgrass: 0
Kochia (Kochia scoparia) [2]; 125 g ai/ha
  Plant response rating, Kochia: 0
Kochia (Kochia scoparia) [2]; 500 g ai/ha
  Plant response rating, Kochia: 30
[3]; 125 g ai/ha
  Foxtail, Giant plant response rating: 20
[3]; 500 g ai/ha
  Plant response rating, Foxtail, Giant: 90
[4]
  Plant response rating, Ducksalad (0 to 100 scale, 0 is no effect, 100 is complete control): 0
[5]; 125 g ai/ha
  Plant response rating, Ragweed: 0
[5]; 500 g ai/ha
  Plant response rating, Ragweed: 0
[6]; 125 g ai/ha
  Plant response rating, Galium: 30
[6]; 500 g ai/ha
  Plant response rating, Galium: 70
[7]; 125 g ai/ha
  Plant response rating, Wheat: 0
[7]; 500 g ai/ha
  Plant response rating, Wheat: 0
Kochia (Kochia scoparia) [8]; 125 g ai/ha
  Kochia plant response rating: 0
Kochia (Kochia scoparia) [8]; 500 g ai/ha
  Plant response rating, Kochia: 60
[9]; 125 g ai/ha
  Plant response rating, Pigweed: 20
[9]; 500 g ai/ha
  Plant response rating, Pigweed: 80
Corn (Zea mays); 125 g ai/ha
  Plant response rating, Corn: 0
Corn (Zea mays); 500 g ai/ha
  Plant response rating, Corn: 0
[10]; 125 g ai/ha
  Barnyardgrass plant response rating: 30
[10]; 500 g ai/ha
  Plant response rating, Barnyardgrass: 90
Rice (Oryza sativa)
  Plant response rating, Rice (0 to 100 scale, 0 is no effect, 100 is complete control): 0
[11]; 125 g ai/ha
  Pigweed plant response rating: 50
[11]; 500 g ai/ha
  Plant response rating, Pigweed: 90
[12]; 125 g ai/ha
  Plant response rating, Ryegrass, Italian: 0
[12]; 500 g ai/ha
  Plant response rating, Ryegrass, Italian: 0
[13]
  Plant response rating, Barnyardgrass (0 to 100 scale, 0 is no effect, 100 is complete control): 0
[14]
  Plant response rating, Sedge, Umbrella (0 to 100 scale, 0 is no effect, 100 is complete control): 0
[15]; 125 g ai/ha
  Plant response rating, Barnyardgrass: 0
[15]; 500 g ai/ha
  Plant response rating, Barnyardgrass: 0
[16]; 125 g ai/ha
  Plant response rating, Foxtail, Giant: 0
[16]; 500 g ai/ha
  Plant response rating, Foxtail, Giant: 0

## C[C@@H](Nc1nc(N)cc(C(F)(F)F)n1)c1cc2ccccc2s1 [Compound 97]
[1]; [19]
  Blackgrass plant response rating: 0
Kochia (Kochia scoparia) [2]; [19]
  Kochia plant response rating: 20
[3]; 1000 g ai/ha
  Foxtail, Giant plant response rating: 0
[5]; [19]
  Ragweed plant response rating: 0
[6]; [19]
  Galium plant response rating: 20
[7]; [19]
  Wheat plant response rating: 0
Kochia (Kochia scoparia) [8]; 1000 g ai/ha
  Kochia plant response rating: 0
[9]; [19]
  Pigweed plant response rating: 0
Corn (Zea mays); [19]
  Corn plant response rating: 0
[17]; 1000 g ai/ha
  Ryegrass, Italian plant response rating: 0
[10]; 1000 g ai/ha
  Barnyardgrass plant response rating: 0
[18]; 1000 g ai/ha
  Ragweed plant response rating: 0
[11]; 1000 g ai/ha
  Pigweed plant response rating: 0
[12]; [19]
  Ryegrass, Italian plant response rating: 0
[15]; [19]
  Barnyardgrass plant response rating: 0
[16]; [19]
  Foxtail, Giant plant response rating: 0

## Cc1cccc2oc(C(C)Nc3ncc(C(F)(F)F)c(N)n3)cc12 (stereo not shown) [Compound 101]
[1]; [20]
  Plant response rating, Blackgrass: 20
[1]; [21]
  Plant response rating, Blackgrass: 70
Kochia (Kochia scoparia) [2]; [20]
  Plant response rating, Kochia: 70
Kochia (Kochia scoparia) [2]; [21]
  Plant response rating, Kochia: 100
[3]; 125 g ai/ha
  Foxtail, Giant plant response rating: 100
[3]; 500 g ai/ha
  Foxtail, Giant plant response rating: 100
[5]; [20]
  Plant response rating, Ragweed: 30
[5]; [21]
  Plant response rating, Ragweed: 100
[6]; [20]
  Plant response rating, Galium: 80
[6]; [21]
  Plant response rating, Galium: 90
[7]; [20]
  Plant response rating, Wheat: 0
[7]; [21]
  Plant response rating, Wheat: 40
Kochia (Kochia scoparia) [8]; 125 g ai/ha
  Kochia plant response rating: 90
Kochia (Kochia scoparia) [8]; 500 g ai/ha
  Kochia plant response rating: 90
[9]; [20]
  Plant response rating, Pigweed: 100
[9]; [21]
  Plant response rating, Pigweed: 100
Corn (Zea mays); [20]
  Plant response rating, Corn: 0
Corn (Zea mays); [21]
  Plant response rating, Corn: 40
[17]; 125 g ai/ha
  Ryegrass, Italian plant response rating: 30
[17]; 500 g ai/ha
  Ryegrass, Italian plant response rating: 90
[10]; 125 g ai/ha
  Barnyardgrass plant response rating: 90
[10]; 500 g ai/ha
  Barnyardgrass plant response rating: 90
[18]; 125 g ai/ha
  Ragweed plant response rating: 70
[18]; 500 g ai/ha
  Ragweed plant response rating: 100
[11]; 125 g ai/ha
  Pigweed plant response rating: 70
[11]; 500 g ai/ha
  Pigweed plant response rating: 100
[12]; [20]
  Plant response rating, Ryegrass, Italian: 60
[12]; [21]
  Plant response rating, Ryegrass, Italian: 70
[15]; [20]
  Plant response rating, Barnyardgrass: 30
[15]; [21]
  Plant response rating, Barnyardgrass: 100
[16]; [20]
  Plant response rating, Foxtail, Giant: 10
[16]; [21]
  Plant response rating, Foxtail, Giant: 100

## CC(Nc1ncc(C(F)(F)F)c(N)n1)c1cc2c(Br)cccc2o1 (stereo not shown) [Compound 102]
[1]; [20]
  Plant response rating, Blackgrass: 0
[1]; [21]
  Plant response rating, Blackgrass: 40
Kochia (Kochia scoparia) [2]; [20]
  Plant response rating, Kochia: 70
Kochia (Kochia scoparia) [2]; [21]
  Plant response rating, Kochia: 90
[3]; 125 g ai/ha
  Foxtail, Giant plant response rating: 80
[3]; 500 g ai/ha
  Foxtail, Giant plant response rating: 100
[5]; [20]
  Plant response rating, Ragweed: 30
[5]; [21]
  Plant response rating, Ragweed: 100
[6]; [20]
  Plant response rating, Galium: 100
[6]; [21]
  Plant response rating, Galium: 100
[7]; [20]
  Plant response rating, Wheat: 0
[7]; [21]
  Plant response rating, Wheat: 40
Kochia (Kochia scoparia) [8]; 125 g ai/ha
  Kochia plant response rating: 70
Kochia (Kochia scoparia) [8]; 500 g ai/ha
  Kochia plant response rating: 90
[9]; [20]
  Plant response rating, Pigweed: 100
[9]; [21]
  Plant response rating, Pigweed: 100
Corn (Zea mays); [20]
  Plant response rating, Corn: 0
Corn (Zea mays); [21]
  Plant response rating, Corn: 20
[17]; 125 g ai/ha
  Ryegrass, Italian plant response rating: 30
[17]; 500 g ai/ha
  Ryegrass, Italian plant response rating: 60
[10]; 125 g ai/ha
  Barnyardgrass plant response rating: 30
[10]; 500 g ai/ha
  Barnyardgrass plant response rating: 80
[18]; 125 g ai/ha
  Ragweed plant response rating: 50
[18]; 500 g ai/ha
  Ragweed plant response rating: 80
[11]; 125 g ai/ha
  Pigweed plant response rating: 100
[11]; 500 g ai/ha
  Pigweed plant response rating: 100
[12]; [20]
  Plant response rating, Ryegrass, Italian: 0
[12]; [21]
  Plant response rating, Ryegrass, Italian: 30
[15]; [20]
  Plant response rating, Barnyardgrass: 10
[15]; [21]
  Plant response rating, Barnyardgrass: 70
[16]; [20]
  Plant response rating, Foxtail, Giant: 0
[16]; [21]
  Plant response rating, Foxtail, Giant: 20
